30 molecules from patent US10836725B2, “Modulators of the integrated stress pathway” (Calico Life Sciences LLC, priority 2016, dated 2020) can be followed below.

This assay deals with ATF4 luciferase reporter. The experiment in a line: ATF4-Luc assay in HEK293T cells carrying the ATF4 luciferase reporter (in vitro model of VWMD). It counts as cell-based, human. The following applies: Homo sapiens, HEK-293T, 1 μg/mL tunicamycin, 7 hours, luminescence (One Glo). The procedure: In order to test exemplary compounds of the invention in a cellular context, a stable VWMD cell line was first constructed. The ATF4 reporter was prepared by fusing the human full-length ATF4 5′-UTR (NCBI Accession No. BC022088.2) in front of the firefly luciferase (FLuc) coding sequence lacking the initiator methionine as described in Sidrauski et al (eLife 2013). The construct was used to produce recombinant retroviruses using standard methods and the resulting viral supernatant was used to transduce HEK293T cells, which were then subsequently selected with puromycin to generate a stable cell line.
HEK293T cells carrying the ATF4 luciferase reporter were plated on polylysine coated 384-well plates (Greiner Bio-one) at 30,000 cells per well. Cells were treated the next day with 1 μg/mL tunicamycin and 200 nM of a compound of Formula (I) for 7 hours. Luminescence was measured using One Glo (Promega) as specified by the manufacturer. Cells were maintained in DMEM with L-glutamine supplemented with 10% heat-inactivated FBS (Gibco) and Antibiotic-Antimycotic solution (Gibco).
Table 2 below summarizes the EC50 data obtained using the ATF4-Luc assay for exemplary compounds of the invention.
Turning to `Cc1ccc(CNC(=O)C23CCC(NC(=O)COc4ccc(Cl)c(F)c4)(CC2)CC3O)nc1` (stereo not drawn) [Compound 142, 4-[2-(4-chloro-3-fluorophenoxy)acetamido]-2-hydroxy-N-[(5-methylpyridin-2-yl)methyl]bicyclo[2.2.2]octane-1-carboxamide], the EC50 was 0.5 to 1 µM. In the case of `Cc1ccnc(CNC(=O)C23CCC(NC(=O)COc4ccc(Cl)c(F)c4)(CC2)CC3O)c1` (stereo not drawn) [Compound 143, 4-[2-(4-chloro-3-fluorophenoxy)acetamido]-2-hydroxy-N-[(4-methylpyridin-2-yl)methyl]bicyclo[2.2.2]octane-1-carboxamide], the EC50 is less than 0.25 µM. On to `O=C(COc1ccc(Cl)c(F)c1)NC12CCC(C(=O)NCc3cnccn3)(CC1)C(O)C2` (stereo not drawn) [Compound 144], for which the EC50 is greater than 2 µM. On to `CN(Cc1ccc(C(F)(F)F)cc1)C(=O)C12CCC(NC(=O)COc3ccc(Cl)c(F)c3)(CC1)CC2O` (stereo not drawn) [Compound 145, 4-[2-(4-chloro-3-fluorophenoxy)acetamido]-2-hydroxy-N-methyl-N-{[4-(trifluoromethyl)phenyl]methyl}bicyclo[2.2.2]octane-1-carboxamide], for which the EC50 was less than 0.25 µM. As for `O=C(COc1ccc(Cl)c(F)c1)NC12CCC(C(=O)NCc3ccc(OC(F)F)cn3)(CC1)C(O)C2` (stereo not drawn) [Compound 146, 4-[2-(4-chloro-3-fluorophenoxy)acetamido]-N-{[5-(difluoromethoxy)pyridin-2-yl]methyl}-2-hydroxybicyclo[2.2.2]octane-1-carboxamide], the EC50 was less than 0.25 µM.

Regarding `O=C(COc1ccc(Cl)c(F)c1)NC12CC(C(=O)NCc3ccc(OC(F)F)cn3)(C1)C2` [Compound 147, 3-[2-(4-chloro-3-fluorophenoxy)acetamido]-N-{[5-(difluoromethoxy)pyridin-2-yl]methyl}bicyclo[1.1.1]pentane-1-carboxamide], the EC50 is 0.25 to 0.5 µM. Next, `O=C(COc1ccc(Cl)c(Cl)c1)NC12CC(C(=O)NCc3ccc(OC(F)F)cn3)(C1)C2` [Compound 148, 3-[2-(3,4-dichlorophenoxy)acetamido]-N-{[5-(difluoromethoxy)pyridin-2-yl]methyl}bicyclo[1.1.1]pentane-1-carboxamide]: less than 0.25 µM; `O=C(COc1ccc(Cl)c(F)c1)NC12CC(C(=O)NCc3ccc(C(F)(F)F)nc3)(C1)C2` [Compound 149, 3-[2-(4-chloro-3-fluorophenoxy)acetamido]-N-{[6-(trifluoromethyl)pyridin-3-yl]methyl}bicyclo[1.1.1]pentane-1-carboxamide]: 0.25 to 0.5 µM.

As for `O=C(COc1ccc(Cl)c(Cl)c1)NC12CC(C(=O)NCc3ccc(C(F)(F)F)nc3)(C1)C2` [Compound 150, 3-[2-(3,4-dichlorophenoxy)acetamido]-N-{[6-(trifluoromethyl)pyridin-3-yl]methyl}bicyclo[1.1.1]pentane-1-carboxamide], the EC50 is less than 0.25 µM. Next, `Cc1cc(CNC(=O)C23CC(NC(=O)COc4ccc(Cl)c(F)c4)(C2)C3)n(C)n1` [Compound 151, 3-[2-(4-chloro-3-fluorophenoxy)acetamido]-N-[(1,3-dimethyl-1H-pyrazol-5-yl)methyl]bicyclo[1.1.1]pentane-1-carboxamide]: greater than 2 µM; `Cc1nn(C)cc1CNC(=O)C12CC(NC(=O)COc3ccc(Cl)c(F)c3)(C1)C2` [Compound 152, 3-[2-(4-chloro-3-fluorophenoxy)acetamido]-N-[(1,3-dimethyl-1H-pyrazol-4-yl)methyl]bicyclo[1.1.1]pentane-1-carboxamide]: greater than 2 µM; `O=C(COc1ccc(Cl)c(F)c1)NC12CC(C(=O)NCCc3ccccn3)(C1)C2` [Compound 153, 3-[2-(4-chloro-3-fluorophenoxy)acetamido]-N-[2-(pyridin-2-yl)ethyl]bicyclo[1.1.1]pentane-1-carboxamide]: greater than 2 µM. `Cc1cc(CNC(=O)C23CC(NC(=O)COc4ccc(Cl)c(Cl)c4)(C2)C3)n(C)n1` [Compound 154, 3-[2-(3,4-dichlorophenoxy)acetamido]-N-[(1,3-dimethyl-1H-pyrazol-5-yl)methyl]bicyclo[1.1.1]pentane-1-carboxamide]: the EC50 was greater than 2 µM.

Take `Cc1ccc(CNC(=O)C23CC(NC(=O)COc4ccc(Cl)c(F)c4)(C2)C3)cn1` [Compound 155, 3-[2-(4-chloro-3-fluorophenoxy)acetamido]-N-[(6-methylpyridin-3-yl)methyl]bicyclo[1.1.1]pentane-1-carboxamide]: the EC50 was greater than 2 µM. To `O=C(COc1ccc(Cl)c(F)c1)NC12CC(C(=O)NCc3ccc(C(F)(F)F)cc3)(C1)C2` [Compound 156, 3-[2-(4-chloro-3-fluorophenoxy)acetamido]-N-{[4-(trifluoromethyl)phenyl]methyl}bicyclo[1.1.1]pentane-1-carboxamide] belongs less than 0.25 µM.

Consider `COc1ccc(CNC(=O)C23CC(NC(=O)COc4ccc(Cl)c(F)c4)(C2)C3)cn1` [Compound 157, 3-[2-(4-chloro-3-fluorophenoxy)acetamido]-N-[(6-methoxypyridin-3-yl)methyl]bicyclo[1.1.1]pentane-1-carboxamide], for which the EC50 is greater than 2 µM.

Consider `Cc1ccc(OCCNC(=O)C23CC(NC(=O)COc4ccc(Cl)c(F)c4)(C2)C3)cc1C` [Compound 158, 3-[2-(4-chloro-3-fluorophenoxy)acetamido]-N-[2-(3,4-dimethylphenoxy)ethyl]bicyclo[1.1.1]pentane-1-carboxamide], for which the EC50 is less than 0.25 µM. As to `Cc1noc(CNC(=O)C23CC(NC(=O)COc4ccc(Cl)c(F)c4)(C2)C3)n1` [Compound 159, 3-[2-(4-chloro-3-fluorophenoxy)acetamido]-N-[(3-methyl-1,2,4-oxadiazol-5-yl)methyl]bicyclo[1.1.1]pentane-1-carboxamide], the EC50 is greater than 2 µM.

Turning to `Cc1cc(CNC(=O)C23CC(NC(=O)COc4ccc(Cl)c(F)c4)(C2)C3)c(C)o1` [Compound 160, 3-[2-(4-chloro-3-fluorophenoxy)acetamido]-N-[(2,5-dimethylfuran-3-yl)methyl]bicyclo[1.1.1]pentane-1-carboxamide], the EC50 was greater than 2 µM.

For the molecule `O=C(COc1ccc(Cl)c(F)c1)NC12CC(C(=O)NCc3cccc(OC(F)(F)F)c3)(C1)C2` [Compound 161, 3-[2-(4-chloro-3-fluorophenoxy)acetamido]-N-{[3-(trifluoromethoxy)phenyl]methyl}bicyclo[1.1.1]pentane-1-carboxamide], the EC50 is greater than 2 µM.

With `O=C(COc1ccc(Cl)c(F)c1)NC12CC(C(=O)NCc3ccccc3)(C1)C2` [Compound 162, N-benzyl-3-[2-(4-chloro-3-fluorophenoxy)acetamido]bicyclo[1.1.1]pentane-1-carboxamide], the EC50 is greater than 2 µM. For `O=C(COc1ccc(Cl)c(F)c1)NC12CC(C(=O)NCc3c(Cl)cccc3Cl)(C1)C2` [Compound 163, 3-[2-(4-chloro-3-fluorophenoxy)acetamido]-N-[(2,6-dichlorophenyl)methyl]bicyclo[1.1.1]pentane-1-carboxamide], the EC50 was greater than 2 µM. As for `Cc1ccncc1CNC(=O)C12CC(NC(=O)COc3ccc(Cl)c(F)c3)(C1)C2` [Compound 165, 3-[2-(4-chloro-3-fluorophenoxy)acetamido]-N-[(4-methylpyridin-3-yl)methyl]bicyclo[1.1.1]pentane-1-carboxamide], the EC50 is greater than 2 µM. For the molecule `Cc1cccc(CNC(=O)C23CC(NC(=O)COc4ccc(Cl)c(F)c4)(C2)C3)c1` [Compound 166, 3-[2-(4-chloro-3-fluorophenoxy)acetamido]-N-[(3-methylphenyl)methyl]bicyclo[1.1.1]pentane-1-carboxamide], the EC50 is greater than 2 µM. On to `CC(C)(C)c1ccc(CNC(=O)C23CC(NC(=O)COc4ccc(Cl)c(F)c4)(C2)C3)cc1` [Compound 167, N-[(4-tert-butylphenyl)methyl]-3-[2-(4-chloro-3-fluorophenoxy)acetamido]bicyclo[1.1.1]pentane-1-carboxamide], for which the EC50 is greater than 2 µM.

Turning to `Cc1ccc(CNC(=O)C23CC(NC(=O)COc4ccc(Cl)c(F)c4)(C2)C3)nc1` [Compound 168, 3-[2-(4-chloro-3-fluorophenoxy)acetamido]-N-[(5-methylpyridin-2-yl)methyl]bicyclo[1.1.1]pentane-1-carboxamide], the EC50 lay in the range of 1 to 2 µM. Next, `O=C(COc1ccc(Cl)c(F)c1)NC12CC(C(=O)NCc3ccc(OC(F)F)cc3)(C1)C2` [Compound 169, 3-[2-(4-chloro-3-fluorophenoxy)acetamido]-N-{[4-(difluoromethoxy)phenyl]methyl}bicyclo[1.1.1]pentane-1-carboxamide]: 0.5 to 1 µM; `O=C(COc1ccc(Cl)c(F)c1)NC12CC(C(=O)NCc3cnoc3)(C1)C2` [Compound 170, 3-[2-(4-chloro-3-fluorophenoxy)acetamido]-N-[(1,2-oxazol-4-yl)methyl]bicyclo[1.1.1]pentane-1-carboxamide]: greater than 2 µM; `CC(Cc1ccc(F)cc1)NC(=O)C12CC(NC(=O)COc3ccc(Cl)c(F)c3)(C1)C2` (stereo not drawn) [Compound 171, 3-[2-(4-chloro-3-fluorophenoxy)acetamido]-N-[1-(4-fluorophenyl)propan-2-yl]bicyclo[1.1.1]pentane-1-carboxamide]: 1 to 2 µM.

With `CC(NC(=O)C12CC(NC(=O)COc3ccc(Cl)c(F)c3)(C1)C2)c1ccccc1` (stereo not drawn) [Compound 172, 3-[2-(4-chloro-3-fluorophenoxy)acetamido]-N-(1-phenylethyl)bicyclo[1.1.1]pentane-1-carboxamide], the EC50 was greater than 2 µM.

As usually defined, the EC50 is the concentration giving half of the maximal effect.
